Each structure is given as a SMILES string. Starred links: 1 amine or outer side, 2 acyl side, 3 side chain; linkers in the order of their positions; H or OH if unused. Non-standard residues stand in square brackets, D forms with d. Residues, ends and D or L forms follow the SMILES beside them. Trp(4-Cl)(βS-Me) = C[C@@H](c1c[nH]c2cccc(Cl)c12)[C@H](N)C(=O)O; dPro(4R-(4-pyridylmethyl)) = O=C(O)[C@H]1C[C@@H](Cc2ccncc2)CN1; Trp(βS-Me,4-F) = C[C@@H](c1c[nH]c2cccc(F)c12)[C@H](N)C(=O)O; Bip(4'-COOH) = N[C@@H](Cc1ccc(-c2ccc(C(=O)O)cc2)cc1)C(=O)O; Ala(1-bicyclo(1.1.1)pentyl) = N[C@@H](CC12CC(C1)C2)C(=O)O; dPro(3S-(4-F-Bn)) = O=C(O)[C@@H]1NCC[C@@H]1Cc1ccc(F)cc1; 1Nal(3S-Me) = C[C@@H](c1cccc2ccccc12)[C@H](N)C(=O)O; Ala(morpholin-4-yl) = N[C@@H](CN1CCOCC1)C(=O)O; Ala(piperazin-1-yl) = N[C@@H](CN1CCNCC1)C(=O)O; Ala(pyrimidin-5-yl) = N[C@@H](Cc1cncnc1)C(=O)O; Phe(4-COOH) = N[C@@H](Cc1ccc(C(=O)O)cc1)C(=O)O; Bip = N[C@@H](Cc1ccc(-c2ccccc2)cc1)C(=O)O; Pro(cis-4-F) = O=C(O)[C@@H]1C[C@H](F)CN1; Ala(4-THP) = N[C@@H](CC1CCOCC1)C(=O)O; X6 = O=C([C@H](Cc1ccncn1)N[*:1])[*:2]; d(αMeD) = C[C@@](N)(CC(=O)O)C(=O)O; 4Pal = N[C@@H](Cc1ccncc1)C(=O)O; aThr = C[C@H](O)[C@H](N)C(=O)O; Dab = NCC[C@H](N)C(=O)O; Aib = CC(C)(N)C(=O)O

As a reminder, the IC50 is the concentration that gives 50% inhibition.

This test deals with T1, IL-1β (Homo sapiens, UniProt P01584).
T1 construct: purchased BioLegend 579404
T1 sequence (P01584 117-269): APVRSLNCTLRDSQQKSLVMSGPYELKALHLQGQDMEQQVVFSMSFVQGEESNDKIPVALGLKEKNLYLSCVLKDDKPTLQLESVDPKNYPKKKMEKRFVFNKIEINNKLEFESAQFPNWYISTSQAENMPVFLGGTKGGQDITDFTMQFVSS
Put plainly: IL-6 assay in MRC5 cells: inhibition of IL-1β induced IL-6 secretion (AlphaLISA). It counts as cell-based. The following applies: inhibition of IL-1β induced IL-6 secretion in MRC5 cells; compound pre-incubated 1 hour with recombinant human IL-1β; read-out: MRC5 IC50. In a few lines: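 Compound was pre-incubated 1 h at ambient temperature with recombinant human IL-1β at 2λ EC80 before adding human lung fibroblast MRC5 cells (3000/well) in EMEM with 0.025% BSA. After overnight culture at 37 °C, 5% CO2, secreted IL-6 in conditioned medium was measured by AlphaLISA; IC50 from 4-parameter logistic fits.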
(Bead proximity is the source of the signal in Alpha formats.)
Turning to `C[C@@H](c1c[nH]c2cccc(F)c12)[C@@H]1NC(=O)[C@@H]2C[C@H](F)CN2C(=O)CNC(=O)[C@H](Cc2ccc(C(=O)O)cc2)NC(=O)[C@H](CC23CC(C2)C3)NC(=O)[C@H](Cc2ccc(-c3ccc(C(=O)O)cc3)cc2)NC(=O)[C@H]2C[C@@H](Cc3ccncc3)CN2C(=O)CNC(=O)[C@H](CCN)NC(=O)[C@H](CCC(N)=O)NC(=O)[C@H](Cc2ccncn2)NC(=O)[C@@](C)(CC(=O)O)NC(=O)[C@H](Cc2c[nH]c3ccccc23)NC(=O)[C@H](CO)NC(=O)C(C)(C)NC1=O` [Example 285] (cyclo([Bip(4'-COOH)][Ala(1-bicyclo(1.1.1)pentyl)][Phe(4-COOH)]G[Pro(cis-4-F)][Trp(βS-Me,4-F)][Aib]SW[d(αMeD)][X6]Q[Dab]G[dPro(4R-(4-pyridylmethyl))])), the IC50 was 13 pM.

As for `C[C@@H](c1c[nH]c2cccc(F)c12)[C@@H]1NC(=O)[C@@H]2C[C@H](F)CN2C(=O)CNC(=O)[C@H](Cc2ccc(C(=O)O)cc2)NC(=O)[C@H](Cc2ccncc2)NC(=O)[C@H](Cc2ccc(-c3ccc(C(=O)O)cc3)cc2)NC(=O)[C@H]2[C@@H](Cc3ccc(F)cc3)CCN2C(=O)CNC(=O)[C@H](CCN)NC(=O)[C@H](CCC(N)=O)NC(=O)[C@H](CN2CCOCC2)NC(=O)[C@@](C)(CC(=O)O)NC(=O)[C@H](Cc2c[nH]c3ccccc23)NC(=O)[C@H](CO)NC(=O)C(C)(C)NC1=O` [Example 286] (cyclo([Bip(4'-COOH)][4Pal][Phe(4-COOH)]G[Pro(cis-4-F)][Trp(βS-Me,4-F)][Aib]SW[d(αMeD)][Ala(morpholin-4-yl)]Q[Dab]G[dPro(3S-(4-F-Bn))])), the IC50 turned out to be 10 pM.

As to `C[C@@H](c1c[nH]c2cccc(F)c12)[C@@H]1NC(=O)[C@@H]2C[C@H](F)CN2C(=O)CNC(=O)[C@H](Cc2ccc(C(=O)O)cc2)NC(=O)[C@H](Cc2ccncc2)NC(=O)[C@H](Cc2ccc(-c3ccc(C(=O)O)cc3)cc2)NC(=O)[C@H]2[C@@H](Cc3ccc(F)cc3)CCN2C(=O)CNC(=O)[C@H](CCN)NC(=O)[C@H](CCC(N)=O)NC(=O)[C@H](CN2CCNCC2)NC(=O)[C@@](C)(CC(=O)O)NC(=O)[C@H](Cc2c[nH]c3ccccc23)NC(=O)[C@H](CO)NC(=O)C(C)(C)NC1=O` [Example 287] (cyclo([Bip(4'-COOH)][4Pal][Phe(4-COOH)]G[Pro(cis-4-F)][Trp(βS-Me,4-F)][Aib]SW[d(αMeD)][Ala(piperazin-1-yl)]Q[Dab]G[dPro(3S-(4-F-Bn))])), the IC50 amounted to 11 pM.

`C[C@H](O)[C@@H]1NC(=O)[C@@](C)(CC(=O)O)NC(=O)[C@H](Cc2c[nH]c3ccccc23)NC(=O)[C@H](CO)NC(=O)C(C)(C)NC(=O)[C@H]([C@@H](C)c2cccc3ccccc23)NC(=O)[C@@H]2C[C@H](F)CN2C(=O)CNC(=O)[C@H](Cc2ccc(C(=O)O)cc2)NC(=O)[C@H](Cc2ccncc2)NC(=O)[C@H](Cc2ccc(-c3ccccc3)cc2)NC(=O)[C@H]2C[C@@H](Cc3ccncc3)CN2C(=O)CNC(=O)[C@H](CCN)NC(=O)[C@H](CCC(N)=O)NC1=O` [Example 288] (cyclo([Bip][4Pal][Phe(4-COOH)]G[Pro(cis-4-F)][1Nal(3S-Me)][Aib]SW[d(αMeD)][aThr]Q[Dab]G[dPro(4R-(4-pyridylmethyl))])): the concentration for half-maximal inhibition (IC50) was 19 pM.

For `C[C@H](O)[C@@H]1NC(=O)[C@@](C)(CC(=O)O)NC(=O)[C@H](Cc2c[nH]c3ccccc23)NC(=O)[C@H](CO)NC(=O)C(C)(C)NC(=O)[C@H]([C@@H](C)c2c[nH]c3cccc(Cl)c23)NC(=O)[C@@H]2C[C@H](F)CN2C(=O)CNC(=O)[C@H](Cc2ccc(C(=O)O)cc2)NC(=O)[C@H](Cc2ccncc2)NC(=O)[C@H](Cc2ccc(-c3ccccc3)cc2)NC(=O)[C@H]2C[C@@H](Cc3ccncc3)CN2C(=O)CNC(=O)[C@H](CCN)NC(=O)[C@H](CCC(N)=O)NC1=O` [Example 289] (cyclo([Bip][4Pal][Phe(4-COOH)]G[Pro(cis-4-F)][Trp(4-Cl)(βS-Me)][Aib]SW[d(αMeD)][aThr]Q[Dab]G[dPro(4R-(4-pyridylmethyl))])), the 50% inhibitory concentration (IC50) amounted to 15 pM.

In the case of `C[C@@H](c1cccc2ccccc12)[C@@H]1NC(=O)[C@@H]2C[C@H](F)CN2C(=O)CNC(=O)[C@H](Cc2ccc(C(=O)O)cc2)NC(=O)[C@H](Cc2ccncc2)NC(=O)[C@H](Cc2ccc(-c3ccccc3)cc2)NC(=O)[C@H]2C[C@@H](Cc3ccncc3)CN2C(=O)CNC(=O)[C@H](CCN)NC(=O)[C@H](CCC(N)=O)NC(=O)[C@H](CC2CCOCC2)NC(=O)[C@@](C)(CC(=O)O)NC(=O)[C@H](Cc2c[nH]c3ccccc23)NC(=O)[C@H](CO)NC(=O)C(C)(C)NC1=O` [Example 290] (cyclo([Bip][4Pal][Phe(4-COOH)]G[Pro(cis-4-F)][1Nal(3S-Me)][Aib]SW[d(αMeD)][Ala(4-THP)]Q[Dab]G[dPro(4R-(4-pyridylmethyl))])), the half-maximal inhibitory concentration (IC50) turned out to be 18 pM.

As to `C[C@@H](c1cccc2ccccc12)[C@@H]1NC(=O)[C@@H]2C[C@H](F)CN2C(=O)CNC(=O)[C@H](Cc2ccc(C(=O)O)cc2)NC(=O)[C@H](Cc2ccncc2)NC(=O)[C@H](Cc2ccc(-c3ccccc3)cc2)NC(=O)[C@H]2C[C@@H](Cc3ccncc3)CN2C(=O)CNC(=O)[C@H](CCN)NC(=O)[C@H](CCC(N)=O)NC(=O)[C@H](Cc2cncnc2)NC(=O)[C@@](C)(CC(=O)O)NC(=O)[C@H](Cc2c[nH]c3ccccc23)NC(=O)[C@H](CO)NC(=O)C(C)(C)NC1=O` [Example 291] (cyclo([Bip][4Pal][Phe(4-COOH)]G[Pro(cis-4-F)][1Nal(3S-Me)][Aib]SW[d(αMeD)][Ala(pyrimidin-5-yl)]Q[Dab]G[dPro(4R-(4-pyridylmethyl))])), the 50% inhibitory concentration (IC50) is 18 pM.

As to `C[C@@H](c1c[nH]c2cccc(Cl)c12)[C@@H]1NC(=O)[C@@H]2C[C@H](F)CN2C(=O)CNC(=O)[C@H](Cc2ccc(C(=O)O)cc2)NC(=O)[C@H](Cc2ccncc2)NC(=O)[C@H](Cc2ccc(-c3ccccc3)cc2)NC(=O)[C@H]2C[C@@H](Cc3ccncc3)CN2C(=O)CNC(=O)[C@H](CCN)NC(=O)[C@H](CCC(N)=O)NC(=O)[C@H](Cc2cncnc2)NC(=O)[C@@](C)(CC(=O)O)NC(=O)[C@H](Cc2c[nH]c3ccccc23)NC(=O)[C@H](CO)NC(=O)C(C)(C)NC1=O` [Example 292] (cyclo([Bip][4Pal][Phe(4-COOH)]G[Pro(cis-4-F)][Trp(4-Cl)(βS-Me)][Aib]SW[d(αMeD)][Ala(pyrimidin-5-yl)]Q[Dab]G[dPro(4R-(4-pyridylmethyl))])), the IC50 turned out to be 15 pM.

With `C[C@H](O)[C@@H]1NC(=O)[C@@](C)(CC(=O)O)NC(=O)[C@H](Cc2c[nH]c3ccccc23)NC(=O)[C@H](CO)NC(=O)C(C)(C)NC(=O)[C@H]([C@@H](C)c2c[nH]c3cccc(F)c23)NC(=O)[C@@H]2C[C@H](F)CN2C(=O)CNC(=O)[C@H](Cc2ccc(C(=O)O)cc2)NC(=O)[C@H](Cc2ccncc2)NC(=O)[C@H](Cc2ccc(-c3ccccc3)cc2)NC(=O)[C@H]2C[C@@H](Cc3ccncc3)CN2C(=O)CNC(=O)[C@H](CCN)NC(=O)[C@H](CCC(N)=O)NC1=O` [Example 293] (cyclo([Bip][4Pal][Phe(4-COOH)]G[Pro(cis-4-F)][Trp(βS-Me,4-F)][Aib]SW[d(αMeD)][aThr]Q[Dab]G[dPro(4R-(4-pyridylmethyl))])), the IC50 was 10 pM.

The record behind these values is patent publication US20260242419A1, “A CYCLIC PEPTIDE FOR TRAPPING INTERLEUKIN-1 BETA” (Merck Sharp & Dohme LLC, priority 2023, published 2026).
